Test results reported in patent US20050080113A1, “Medicinal compositions” (priority 2001, published 2005).

biological target: CYP3A4 (Homo sapiens, UniProt P08684); assay: Measurement of CYP3A4 inhibitory activity (testosterone 6β-hydroxylation), Example 3; type: in vitro ADME; settings: CYP3A4 enzyme preparation with control microsomes, pH 7.4, probe testosterone (100 μM; 6β-hydroxylation), CYP3A4, test substance 10 μM, 100 μM testosterone, 37° C. 30 min, read-out: inhibitory rate (%) at 10 μM
Sequence (P08684 whole entry): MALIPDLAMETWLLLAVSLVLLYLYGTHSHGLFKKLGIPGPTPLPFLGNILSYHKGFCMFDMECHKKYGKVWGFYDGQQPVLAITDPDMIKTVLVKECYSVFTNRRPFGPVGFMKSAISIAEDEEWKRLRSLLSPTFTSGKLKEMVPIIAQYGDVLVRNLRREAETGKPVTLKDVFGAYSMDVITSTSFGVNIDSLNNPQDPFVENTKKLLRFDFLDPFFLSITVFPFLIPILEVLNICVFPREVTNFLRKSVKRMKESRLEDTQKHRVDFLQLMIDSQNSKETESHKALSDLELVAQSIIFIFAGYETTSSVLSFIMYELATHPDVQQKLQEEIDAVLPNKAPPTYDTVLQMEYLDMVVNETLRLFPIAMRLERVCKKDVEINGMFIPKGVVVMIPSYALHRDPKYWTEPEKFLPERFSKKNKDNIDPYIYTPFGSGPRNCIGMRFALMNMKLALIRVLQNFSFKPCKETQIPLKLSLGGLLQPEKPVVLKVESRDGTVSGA
Description: 10 pmol/mL CYP3A4, 100 μM testosterone, 1/10 volume of the reaction mixture of NADPH generating system and test substance (10 μM) were added to a 50 mM phosphate buffer (pH 7.4) and control microsome was added to adjust the final concentration of protein to 1.0 mg/mL. The reaction mixture was prepared and reacted at 37° C. for 30 min. (amount of total reaction solution 100 μL). The reaction was quenched by the addition of 100 μL of acetonitrile. After stirring, 100 μL of distilled water was added and the mixture was further stirred. A supernatant obtained by centrifugation (15000 rpm) for 10 min. was injected to HPLC by 80 μL and concentration of 6 β-hydroxytestosterone produced by the reaction was measured.
For preparation of the NADPH generating system, 1 volume of 50 mM NADP (β-nicotinamide adenine dinucleotide oxidized type), 1 volume of 0.5 M glucose-6 phosphate, 5 volumes of 0.1 M magnesium chloride, 1 volume of 150 unit/mL glucose-6-phosphate […] and 2 volumes of distilled water were mixed.

SMILES	inhibition at 30 min, 10 μM
CCc1nc(-c2cccc(C)c2)c(-c2ccnc(C)c2)s1 [H 13, 2 ethyl-4 (3 methylphenyl)-5 (2 methyl-4 pyridyl)-1,3 thiazole]	< 30%
CCc1nc(-c2cccc(C)c2)c(-c2ccnc(N)c2)s1 [H 22, 4-[2-ethyl-4-(3-methylphenyl)-1,3-thiazol-5-yl]-2-pyridylamine]	< 30%
CCc1nc(-c2cccc(C)c2)c(-c2ccnc(NCCCc3ccccc3)c2)s1 [D 19-4, N-[4-[2-ethyl-4-(3-methylphenyl)-1,3-thiazol-5-yl]-2-pyridyl]-N-(3-phenylpropyl)amine]	< 30%
CCc1nc(-c2cccc(C)c2)c(-c2ccnc(F)c2)s1 [H 11, 2-ethyl-5-(2-fluoro-4-pyridyl)-4-(3-methylphenyl)-1,3-thiazole]	< 30%
CCc1nc(-c2cccc(C)c2)c(-c2ccnc(NC(C)=O)c2)s1 [H 29-2, N-[4-[2-ethyl-4-(3-methylphenyl)-1,3-thiazol-5-yl]-2-pyridyl]acetamide]	< 30%
CCc1nc(-c2cccc(C)c2)c(-c2ccnc(Cl)c2)s1 [H 69, 5 (2 chloro-4 pyridyl)-2 ethyl-4 (3 methylphenyl)-1,3-thiazole]	< 30%

biological target: T1, human p38 MAP kinase (Homo sapiens, UniProt Q16539); assay: Measurement of the p38 MAP kinase inhibitory activity, 32P uptake into Myelin Basic Protein (Reference Example F 2); type: biochemical; settings: active form p38 MAP kinase, 30° C. 60 minutes, read-out: IC50 (p38 MAP kinase inhibitory activity, uptake of 32P into acid insoluble fraction)
T1 construct: made in house; host or cells: Sf-21 insect cells, baculovirus (BAC-HP38 co-infected with BAC-caMKK3)
T1 sequence (Q16539 whole entry): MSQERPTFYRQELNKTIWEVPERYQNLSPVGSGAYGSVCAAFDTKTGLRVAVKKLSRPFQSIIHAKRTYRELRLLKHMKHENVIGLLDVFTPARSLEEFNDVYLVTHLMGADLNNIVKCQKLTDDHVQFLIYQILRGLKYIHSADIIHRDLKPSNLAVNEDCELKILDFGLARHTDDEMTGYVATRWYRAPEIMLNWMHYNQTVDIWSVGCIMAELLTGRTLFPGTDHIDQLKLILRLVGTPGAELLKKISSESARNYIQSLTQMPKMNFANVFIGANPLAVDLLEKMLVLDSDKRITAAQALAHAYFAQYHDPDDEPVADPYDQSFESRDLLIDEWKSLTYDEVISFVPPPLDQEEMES
Description: The genetic manipulations described below were according to the methods described in the book (Maniatis et al., Molecular Cloning, Cold Spring Harbor Laboratory, 1989) or a method described in the protocol attached to the reagent.
(1) Cloning of Human p38 MAP Kinase Gene and Preparation of Recombinant Baculovirus
Cloning of human p38 MAP kinase gene was performed by a PCR method using a primer set P38 U: 5′-[…]-3′ [SEQ ID NO:9] and PAG-L: 5′-[…]-3′ [SEQ ID NO:10] made by reference to the base sequence of p38 MAP kinase gene reported by Han et al. (Science 265 (5173), 808 811 (1994)) and employing kidney cDNA (Toyobo, QUICK-Clone cDNA) as a template.
A PCR reaction was performed by a Hot Start method using AmpliWax PCR Gem 100 (Takara Shuzo). As the lower mixed solution, 2 μL 10×LA PCR Buffer, 3 μL 2.5 mM dNTP solution, each 2.5 μL of 12.5 μM primer solution, and 10 μL sterile distilled water were mixed. As the upper mixed solution, 1 μL human cardiac cDNA (1 ng/mL) as a template, 3 μL 10×LA PCR Buffer, 1 μL 2.5 mM dNTP solution, 0.5 μL TaKaRa LA Taq DNA polymerase (Takara Shuzo), and 24.5 μL sterile distilled water were mixed. One AmpliWax PCR Gem 100 (Takara Shuzo) was added to the prepared lower mixed solution to treat at 70° C. for 5 minutes and for 5 minutes in an ice and, thereafter, the upper mixed solution was added to prepare a reaction solution for PCR. A tube containing the reaction solution was set at a thermal cycler (Perkin Elmer), which was treated at 95° C. for 2 minutes. Further, after repeating 35 times a cycle of 15 seconds at 95° C. and 2 minutes at 68° C., treatment was performed at 72° C. for 8 minutes. The resulting PCR product was subjected to agarose gel (1%) electrophoresis, 1.1 kb DNA fragment containing p38 MAP kinase gene was recovered from the gel and, thereafter, which was inserted into pT7Blue-T vector (Takara Shuzo) to make the plasmid pHP38.
The 4.8 kb XhoI-KpnI fragment of the plasmid pFASTBAC1 (CIBCOBRL) and the 1.1 kb XhoI-Kpn fragment of the above plasmid pHP38 were ligated to make the plasmid pFBHP38.
The plasmid pFBHP38 and BAC-TO-BAC Baculovirus Expression System (GIBCOBRL) were used to prepare the recombinant Baculovirus virusstock BAC-HP38.
(2) Cloning of Human MKK3 Gene and Preparation of Recombinant Baculovirus
Cloning of human MKK3 gene was performed by a PCR method using a primer set MKK-U: 5′-[…]-3′ [SEQ ID NO:11] and MKK-L: 5′-[…]-3′ [SEQ ID NO:12] made by reference to the base sequence of MKK3 gene reported by Derijard, B. et al., Science 267 (5198), 682 685 (1995) and using kidney cDNA (Toyobo, QUICK-Clone cDNA).
A PCR reaction was performed by a Hot Start method using AmpliWax PCR Gem 100 (Takara Shuzo). As the lower mixed solution, 2 μL 10×LA PCR Buffer, 3 μL 2.5 mM dNTP solution, each 2.5 μL of 12.5 μM primer solution, and 10 μL sterile distilled water were mixed. As the upper mixed solution, 1 μL human kidney cDNA (1 ng/mL), 3 μL 10×LA PCR Buffer, 1 μL 2.5 mM dNTP solution, 0.5 μL TaKaRa LA taq DNA polymerase (Takara Shuzo) and 24.5 μL sterile distilled water were mixed. One AmpliWax PCR Gem 100 (Takara Shuzo) was added to the prepared lower mixed solution to treat at 70° C. for 5 minutes and for 5 minutes in ice and, thereafter, the upper mixed solution was added to prepare a reaction solution for PCR. A tube containing the reaction solution was set at a thermal cycler (Perkin Elmer), which was treated at 95° C. for 2 minutes. Further, after repeating 35 times a cycle of 15 seconds at 95° C. and 2 minutes at 68° C., treatment was performed at 72° C. for 8 minutes. The resulting PCR product was subjected to agarose gel (1%) electrophoresis, 1.0 kb DNA fragment containing MKK3 gene was recovered from the gel and, thereafter, which was inserted into pT7Blue-T vector (Takara Shuzo) to make the plasmid pHMKK3. […]

SMILES	IC50
COc1ccc(-c2nc(NC(=O)c3ccccc3)sc2-c2ccnc(NC(=O)c3ccccc3)c2)cc1 [D 2, N-[4-[2-benzoylamino-4-(4-methoxyphenyl)-1,3-thiazol-5-yl]-2-pyridyl]benzamide]	63 nM
Cc1cc(C)cc(-c2nc(N)sc2-c2ccnc(NC(=O)c3ccccc3)c2)c1 [D 5, N-[4-[2-amino-4-(3,5-dimethylphenyl)-1,3-thiazol-5-yl]-2-pyridyl]benzamide]	29 nM
Cc1cc(C)cc(-c2nc(N)sc2-c2ccnc(OCc3ccccc3)c2)c1 [D 1, [4-(3,5-dimethylphenyl)-5-(2-phenylmethyloxy-4-pyridyl)-1,3-thiazol-2-yl]amine]	430 nM

tested on: not given; assay: not given; settings: not given

SMILES	melting point
CSc1ccc(-c2nc(-c3cccc(C)c3)c(-c3ccnc(NCc4ccccc4)c3)s2)cc1 [D 19-17, N-benzyl-N-[4-[4-(3-methylphenyl)-2-(4-methylthiophenyl)-1,3-thiazol-5-yl]-2-pyridyl]amine]	134 to 136 °C
Cc1cc(C)cc(-c2nc(N)sc2-c2ccnc(C)c2)c1 [H 7-5, [4 (3,5 dimethylphenyl)-5-(2 methyl-4 pyridyl)-1,3 thiazol-2 yl]amine]	219 to 220 °C
CCCc1nc(-c2cccc(C)c2)c(-c2ccnc(NC(=O)CCc3ccccc3)c2)s1 [D 16-8, N-[4-[4-(3-methylphenyl)-2-propyl-1,3-thiazol-5-yl]-2-pyridyl]-3-phenylpropionamide]	103 to 104 °C
Cc1cc(C)cc(-c2nc(-c3ccc(S(C)(=O)=O)cc3)sc2-c2cc[n+]([O-])c(C)c2)c1 [H 59, 4 [4 (3,5 dimethylphenyl)-2 (4 methylsulfonylphenyl)-1,3-thiazol-5 yl]-2 methylpyridine N-oxide]	255 to 256 °C
Cc1cc(C)cc(-c2nc(NC(=O)Cc3ccccc3)sc2-c2ccncc2)c1 [23-196, N-[4 (3,5 dimethylphenyl)-5 (4 pyridyl)-1,3 thiazol-2 yl]-2-phenylacetamide]	226 to 229 °C
CSc1ccc(-c2nc(-c3cccc(Cl)c3)c(-c3ccnc(NC(=O)C(C)(C)C)c3)s2)cc1 [H 30-12, N-[4 [4 (3 chlorophenyl)-2 [4 (methylthio)phenyl]-1,3 thiazol-5 yl]-2-pyridyl]pivalamide]	119 to 120 °C
CCc1nc(-c2cccc(C(C)C)c2)c(-c2ccnc(NC(C)=O)c2)s1 [H 82-8, N-[4 [2 ethyl-4 [3 (1-methylethyl)phenyl]-1,3 thiazol-5 yl]-2 pyridyl]acetamide]	116 to 117 °C
Cc1cccc(-c2nc(NC(=O)c3ccc(C)nc3)sc2-c2ccnc(NC3CCCC3)c2)c1 [H 46-2, N-[5 (2 cyclopentylamino-4 pyridyl)-4 (3 methylphenyl)-1,3 thiazol-2 yl]-6-methylnicotinamide]	213 to 214 °C
CCc1nc(-c2ccc(Cl)cc2)c(-c2ccnc(N)c2)s1 [H 20-7, 4 [4 (4 chlorophenyl)-2-ethyl-1,3 thiazol-5 yl]-2 pyridylamine]	136 to 137 °C
CCc1nc(-c2cccc(C)c2)c(-c2ccnc(N3CCOCC3)c2)s1 [H 36-9, 2 ethyl-4 (3-methylphenyl)-5 (2 morpholino-4 pyridyl)-1,3 thiazole]	69 to 71 °C
CCc1nc(-c2cccc(C)c2)c(-c2ccnc(NC(=O)c3ccc(F)cc3)c2)s1 [L 39-5, N-[4 [2 ethyl-4 (3-methylphenyl)-1,3 thiazol-5 yl]-2 pyridyl]-4 fluorobenzamide]	110 to 111 °C
CCCCC(=O)Nc1cc(-c2sc(CC)nc2-c2cccc(Cl)c2)ccn1 [H 88-1, N-[4 [4 (3 chlorophenyl)-2-ethyl-1,3 thiazol-5 yl]-2 pyridyl]valeramide]	109 to 110 °C
Cc1cccc(-c2nc(-c3ccccc3Cl)sc2-c2ccnc(NC(=O)CCc3ccccc3)c2)c1 [D 16-14, N-[4 [2 (2 chlorophenyl)-4 (3 methylphenyl)-1,3 thiazol-5 yl]-2 pyridyl]-3-phenylpropionamide]	156 to 158 °C
CSc1ccc(-c2nc(-c3cccc(C)c3)c(-c3ccnc(NC(=O)c4cccs4)c3)s2)cc1 [D 16-17, N-[4 [4 (3 methylphenyl)-2 (4 methylthiophenyl)-1,3 thiazol-5 yl]-2 pyridyl]-2-thiophenecarboxamide]	145 to 147 °C
Cc1cccc(-c2nc(NC(=O)NCCCl)sc2-c2ccnc(C)c2)c1	149 to 151 °C
CCc1nc(-c2ccc(F)c(C)c2)c(-c2ccnc(NC(C)=O)c2)s1 [H 82-4, N-[4 [2 ethyl-4 (4 fluoro-3 methylphenyl)-1,3 thiazol-5 yl]-2 pyridyl]acetamide]	142 to 143 °C
